Assay results reported in article PMC7117798 (Nature immunology, 2020).
Entries after “also recorded” stand apart in the source; their conditions may differ.

Columns and labels:
[1] = system: CD4^+ T cell hybridomas with C3g7 APCs; experiment: Antigen presentation assay; type: cell-based, mouse; settings: for response of InsB:11–25-reactive CD4^+ T cell hybridoma clone 58: Extended Data Fig. 3
I-A^g7 = experiment: Competitive binding assay; design: species or system mouse; settings: n = 2 independent experiments
[2] = system: CD4^+ T cells from islets and pLN; type: cell-based; settings: 8–10-week old female NOD mice; challenge with Ins1C:51–61 or Ins1C:51–61E and recall; compared with native Ins1C:51–61 or Ins1C:33–61; Fig. 3g
[3] = C3g7 APCs pulsed with epitope, Fig. 2c

Molecule: EALYLVCGE [InsB:13–21]
- response of InsB:11–25-reactive CD4^+ T cell hybridoma clone 58 [1, 3]: did not recognize; also recorded: unreactive

Molecule: TLALEVARE [Ins1C:53–61E]
- relative binding strength to I-A^g7 (in words) (I-A^g7; competitive binding assay on C3g7 cells): bound poorly

Molecule: VEALYLVCG [InsB:12–20]
- response of InsB:11–25-reactive CD4^+ T cell hybridoma clone 21 [1, 3]: cross-reacted
- response of InsB:11–25-reactive CD4^+ T cell hybridoma clone 58 [1, 3]: did not recognize; also recorded: unreactive

Molecule: LYLVCGERG [InsB:15–23]
- response of InsB:11–25-reactive CD4^+ T cell hybridoma clone 58 [1, 3]: responded

Molecule: LQTLALEVARE [Ins1C:51–61E]
- fold higher binding affinity to I-A^g7 than Ins1C:51–61 (I-A^g7; competitive binding assay, Fig. 3e): ~ 3 fold
- IL-2 and IFN-γ production by islet/pLN CD4^+ T cells [2]: substantially stronger responses

Molecule: CCN(CC)CCCC(C)Nc1ccnc2cc(Cl)ccc12 (centres unmarked) [chloroquine, reference compound]
- effect on presentation of Ins1C:33–61 to a cognate CD4^+ T cell hybridoma ([1]; C3g7 APCs treated with 100 μM chloroquine at 37°C for 2 h in the presence of antigen, Extended Data Fig. 1d): did not affect the presentation
